In patent US12358919B2, “Antibacterial compounds” (Universita' degli Studi di Siena, priority 2019, dated 2025):

Key:
Escherichia coli CCUG^T = experiment: microbe, parasite or virus in culture; assay type: cell-based; settings: E. coli CCUG^T
In short: (§1)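 MICs were determined by CLSI M07 broth dilution, for each compound alone and with a fixed sub-inhibitory concentration of polymyxin E1 (colistin). Potentiation fold is the MIC alone divided by the MIC with polymyxin E.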

[1] = system: Acinetobacter baumannii ATCC 17978; experiment: microbe, parasite or virus in culture; assay type: cell-based; settings: A. baumannii ATCC 17978
In short: as §1

A. baumannii ATCC 17978 = experiment: Chequerboard analysis with polymyxin E1 (average FIC index); assay type: cell-based, Acinetobacter baumannii; settings: compound + polymyxin E1
[2] = system: Acinetobacter baumannii (N50 strain), multidrug-resistant clinical isolate resistant to polymyxin E1; experiment: Time-kill curve analysis (bactericidal activity); assay type: cell-based; settings: compound 32 mg/L + polymyxin E1 2 mg/L
Experimental: FIG. 1: bactericidal activity on Acinetobacter baumannii (N50 strain) of polymyxin E1, 2 mg/L (square); polymyxin E1, 2 mg/L+compound Ib 32 mg/L (triangles); control (circles).
Several methods were used to investigate the synergistic activity of the compounds, including (a) the determination of the MIC in the presence of a sub-inhibitory concentration of a suitable antibacterial agent, (b) the determination of the average FICI using a chequerboard analysis and (c) the time-kill curve analysis of a suitable agent (at a sub-inhibitory concentration) in the absence and presence of the pyrazolo[4,3-b]pyridin-6-carboxamide compound at a fixed concentration of 2 or 8 mg/L.
The kinetics of bacterial killing offers an additional mean to characterize the antibacterial activity of compounds, also in combination with other antimicrobial agents. Compounds or a combination thereof are defined as bactericides when the viable bacterial load is decreased by at least 3 log10 (EUCAST, cit.).
This analysis was carried with a multidrug-resistant Acinetobacter baumannii clinical isolate showing resistance to polymyxin E1. The time-kill curves were generated starting from a bacterial inoculum of 10^5 CFU/mL. Bacterial count was determined at several time intervals in the absence (control) or presence of 2 mg/L polymyxin E1 (corresponding to the resistance breakpoint, EUCAST, cit.) supplemented with 32 mg/L of compound Ib (FIG. 1).

[3] = ratio MICcompound/MICcompound+polymyxin E

## CCCCn1c(=O)c(C(=O)NC23CC4CC(CC(C4)C2)C3)c(O)c2nn(C)cc21 [Ib, N-(Adamantan-1-yl)-4-(1-butyl)-4,5-dihydro-7-hydroxy-2-methyl-5-oxo-2H-pyrazolo[4,3-b]pyridin-6-carboxamide]
Escherichia coli CCUG^T; [3]
  Potentiation fold: ≥64
Escherichia coli CCUG^T; with 0.25xMIC polymyxin E1 (0.12 mg/L)
  MIC in presence of colistin: 8 µg/mL
Escherichia coli CCUG^T; Escherichia coli, compound alone, read-out: MIC
  MIC: > 512 µg/mL
[1]; [3]
  Potentiation fold: ≥128
[1]; with 0.25xMIC polymyxin E1 (0.25 mg/L)
  MIC in presence of colistin: 4 µg/mL
[1]; Acinetobacter baumannii, ATCC17978, compound alone, read-out: MIC
  MIC: > 512 µg/mL
A. baumannii ATCC 17978
  Average FIC index: 0.29
[2]; after 30-60 min of incubation
  reduction in the bacterial viable count: more than 3 log 10
[2]; up to 24 hours
  viable count at subsequent time intervals: no viable could be detected
